Measurements from ChEMBL document CHEMBL1201862, “PubChem BioAssay data set” (2004).
The source made the active and inactive calls.

Tests used:
HEK293 [1] = assay: SAR Analysis of small molecule inhibitors of T-cell specific antigen receptor-induced NF-kB activation in a HEK-293T cell line using a luminescence assay - Set 2. [Related pubchem assays (depositor defined):AID435003, AID435012, AID489026]; type: functional, cell-based; conditions: Homo sapiens
[2] = cytotoxicity in HEK-293T cells, dose response, cytotoxicity control for BCR NF-kB inhibitor project, luminescence, B-cell screen hits (AID 489021); type: functional, cell-based;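 further: HEK-293T cells carrying an NF-kB luciferase reporter; cells exposed to compound for about 14 hours before viability readout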
Protein Wnt-3a [3] = target: T1, Protein Wnt-3a (Mus musculus, UniProt P27467); assay: SAR analysis of small molecule antagonists of Gli-SUFU in a Wnt3a luminescent reporter assay.; type: functional
[4] = target: T2, Heat shock factor protein 1 (Mus musculus, UniProt P38532); assay: inhibition of MG132-induced HSE-luciferase signal, confirmation, cell-based, NIH3T3, luminescence, dose retest (AID 2382); type: functional;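 further: NIH3T3 fibroblasts with HSF1-driven luciferase reporter stressed by proteasome inhibitor MG132; luminescence from HSF1-driven luciferase expression after 8 hours of MG132 stress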
T2 sequence (P38532 whole entry): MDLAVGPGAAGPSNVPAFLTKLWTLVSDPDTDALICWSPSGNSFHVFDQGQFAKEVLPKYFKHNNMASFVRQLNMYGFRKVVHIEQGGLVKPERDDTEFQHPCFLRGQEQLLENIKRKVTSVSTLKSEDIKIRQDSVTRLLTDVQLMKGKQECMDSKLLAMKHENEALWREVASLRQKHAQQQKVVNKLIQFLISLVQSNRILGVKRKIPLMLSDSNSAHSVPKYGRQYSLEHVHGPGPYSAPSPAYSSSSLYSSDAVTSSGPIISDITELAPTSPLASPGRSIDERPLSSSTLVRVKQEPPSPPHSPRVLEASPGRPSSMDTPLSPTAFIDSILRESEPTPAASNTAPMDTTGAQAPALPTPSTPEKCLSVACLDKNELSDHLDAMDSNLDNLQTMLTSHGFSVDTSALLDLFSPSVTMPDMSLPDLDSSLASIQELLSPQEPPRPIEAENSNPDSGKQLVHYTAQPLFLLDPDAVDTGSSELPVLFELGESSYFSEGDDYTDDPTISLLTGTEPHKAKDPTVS

HEK293 [5] = assay: cytotoxicity in HEK293T NF-kB-Luc cells, SAR follow-up, cytotoxicity control for NF-kB activator project, cell-based, resazurin fluorescence (AID 493251); type: functional; conditions: Homo sapiens
Jurkat = assay: SAR Analysis of small molecule inhibitors of T-cell specific antigen receptor-induced NF-kB activation in a Jurkat cell line using a luminescence assay - Set 2. [Related pubchem assays (depositor defined):AID435003, AID435012, AID465]; type: functional, cell-based; conditions: Homo sapiens
DNA topoisomerase = DNA topoisomerase (Yersinia pestis, UniProt A0A2S9PM60); assay: Y. pestis Topo-I inhibitors, cleavage product readout, dose response, biochemical, cherry-pick (AID 588525)
Candida albicans [6] = assay: growth inhibition of resistant C. albicans, dose response, CaCi-8 strain, fluconazole, dry powder, set 4 (AID 488950); type: functional, organism-based
Candida albicans [7] = assay: fluconazole resistance reversal in C. albicans, dose response, CaCi-2 strain, Alamar Blue, dry powder, set 4 (AID 488943); type: functional, organism-based
Protein Wnt-3a [8] = target: T1, Protein Wnt-3a; assay: Wnt3a-driven reporter signaling inhibition, dose response, selectivity assay for Gli-SUFU antagonist project, Wnt-LIGHT cells, luminescence (AID 651570); type: functional; conditions: read-out: IC50_Mean;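 further: Wnt-LIGHT reporter cells stimulated with conditioned medium from Wnt3a-producing cells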
HEK293 [9] = assay: inhibitors of LMP1-driven NF-kB reporter, dose response, cell-based, HEK293, luciferase, cherry-pick (AID 588343); type: functional; conditions: Homo sapiens
Candida albicans [10] = assay: Candida albicans growth inhibition, agent alone, dose response, counter-screen for reversing antifungal drug resistance, CaCi-2 strain, no fluconazole, dry powder, set 4 (AID 488932); type: functional, organism-based
Candida albicans [11] = assay: C. albicans growth inhibition with fluconazole, dose response, antifungal resistance reversal project, CaCi-2 strain, Alamar Blue, dry powder, set 2 (AID 488930); type: functional, organism-based
Candida albicans [12] = assay: growth inhibition of azole-resistant C. albicans, dose response, CaCi-8 strain, Alamar Blue, dry powder, set 2 (AID 488909); type: functional, organism-based
[13] = target: Latent membrane protein 1 (Human herpesvirus 4 (strain B95-8), UniProt P03230); assay: TES1-eGFP NF-kB reporter inhibition versus Tet-On dsRED, dose response, selectivity assay for LMP1 NF-kB inhibitor project, imaging, HEK293T, dual-color eGFP/dsRED, cherry-picks (AID 588398); type: functional, cell-based
Nonstructural protein 1 = Nonstructural protein 1 (Influenza A virus, UniProt Q194T2); type: functional, Influenza A virus (A/California/07/2009(H1N1))
Sequence of Nonstructural protein 1 (Q194T2 whole entry): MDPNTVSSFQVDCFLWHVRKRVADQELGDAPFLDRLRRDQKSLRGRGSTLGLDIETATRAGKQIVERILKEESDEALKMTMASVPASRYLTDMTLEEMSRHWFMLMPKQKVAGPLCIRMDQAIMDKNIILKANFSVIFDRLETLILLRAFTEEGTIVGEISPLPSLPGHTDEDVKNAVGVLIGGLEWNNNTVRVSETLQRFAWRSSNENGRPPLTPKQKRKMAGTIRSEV

T1 sequence (P27467 whole entry): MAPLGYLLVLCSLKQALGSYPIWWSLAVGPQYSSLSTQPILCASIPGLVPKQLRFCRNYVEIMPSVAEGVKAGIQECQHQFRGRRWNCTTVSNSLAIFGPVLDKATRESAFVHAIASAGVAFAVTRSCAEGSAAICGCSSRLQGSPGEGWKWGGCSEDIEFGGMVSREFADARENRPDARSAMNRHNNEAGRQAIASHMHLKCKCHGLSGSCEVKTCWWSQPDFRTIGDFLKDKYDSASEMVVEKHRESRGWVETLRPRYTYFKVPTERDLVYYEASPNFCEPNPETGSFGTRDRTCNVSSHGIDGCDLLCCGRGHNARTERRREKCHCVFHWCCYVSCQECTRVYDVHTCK
Sequence of Latent membrane protein 1 (P03230 whole entry): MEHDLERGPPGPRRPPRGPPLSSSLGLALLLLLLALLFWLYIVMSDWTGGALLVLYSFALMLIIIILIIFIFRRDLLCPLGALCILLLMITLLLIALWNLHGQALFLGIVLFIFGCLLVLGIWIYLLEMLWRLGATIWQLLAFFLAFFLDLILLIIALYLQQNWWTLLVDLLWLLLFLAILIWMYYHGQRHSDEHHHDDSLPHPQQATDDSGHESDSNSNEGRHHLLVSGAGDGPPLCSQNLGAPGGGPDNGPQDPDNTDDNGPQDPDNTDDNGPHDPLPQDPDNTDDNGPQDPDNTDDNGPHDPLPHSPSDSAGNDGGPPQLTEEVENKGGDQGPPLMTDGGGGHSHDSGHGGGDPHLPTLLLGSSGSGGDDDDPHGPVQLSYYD
Sequence of DNA topoisomerase (A0A2S9PM60 whole entry): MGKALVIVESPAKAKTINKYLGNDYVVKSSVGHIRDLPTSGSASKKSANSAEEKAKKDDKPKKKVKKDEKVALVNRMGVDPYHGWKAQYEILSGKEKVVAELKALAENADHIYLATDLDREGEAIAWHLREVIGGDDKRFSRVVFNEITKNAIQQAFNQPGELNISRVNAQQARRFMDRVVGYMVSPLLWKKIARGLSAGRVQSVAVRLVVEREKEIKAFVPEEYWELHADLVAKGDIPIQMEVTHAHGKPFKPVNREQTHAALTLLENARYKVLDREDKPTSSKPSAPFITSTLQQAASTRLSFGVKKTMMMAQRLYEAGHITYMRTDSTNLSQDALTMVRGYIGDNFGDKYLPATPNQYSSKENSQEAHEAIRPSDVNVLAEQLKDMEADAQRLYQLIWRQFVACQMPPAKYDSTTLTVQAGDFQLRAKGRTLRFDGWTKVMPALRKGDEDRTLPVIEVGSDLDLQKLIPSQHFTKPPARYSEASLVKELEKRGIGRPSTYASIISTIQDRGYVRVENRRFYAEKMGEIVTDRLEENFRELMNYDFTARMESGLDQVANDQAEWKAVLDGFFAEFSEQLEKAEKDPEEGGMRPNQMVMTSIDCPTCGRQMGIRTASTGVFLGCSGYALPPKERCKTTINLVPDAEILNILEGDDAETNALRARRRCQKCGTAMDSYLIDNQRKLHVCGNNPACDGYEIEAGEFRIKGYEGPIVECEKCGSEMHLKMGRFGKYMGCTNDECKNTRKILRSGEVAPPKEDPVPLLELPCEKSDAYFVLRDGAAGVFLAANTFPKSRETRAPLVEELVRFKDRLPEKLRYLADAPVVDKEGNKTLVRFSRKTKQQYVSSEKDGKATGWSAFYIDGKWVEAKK

CCOc1ccc(-c2nc(CSCC(=O)NC3CC3)c(C)o2)cc1
IC50 (HEK293 [1]): > 80 µM (inactive) | IC50 [2]: > 80 µM (inactive) | IC50 (Protein Wnt-3a [3]): > 21.8 µM (inactive) | EC50 [4]: 0.241 µM (active) | IC50 (HEK293 [5]): > 80 µM (inactive) | IC50 (Jurkat): > 79 µM (inactive)

Cc1cc(C(=O)Cn2nc(C(=O)O)c3ccccc3c2=O)c(C)n1-c1ccc(OC(F)F)cc1
AC50 (DNA topoisomerase): 4.1 µM (active)

O=C(C1CCCCC1)N1CCN(c2ccnc3cc(Cl)ccc23)CC1
AC50 (Candida albicans [6]): 1.01 µM (active) | AC50 (Candida albicans [7]): 0.688 µM (active) | IC50 (Protein Wnt-3a [8]): 10.4 µM (active) | AC50 (HEK293 [9]): 12.5 µM (active) | AC50 (Candida albicans [10]): 200 µM (active) | AC50 (Candida albicans [11]): 0.661 µM (active) | AC50 (Candida albicans [12]): 5.02 µM (active)

CC(=NNC(=S)Nc1ccc(C)cc1)c1ccccn1
AC50 [13]: 0.793 µM (active) | IC50 (Nonstructural protein 1): 16.6 µM (active) | AC50 (HEK293 [9]): 0.149 µM (active)
